Values joined by “and” are separate entries in the source; they are usually repeats but may differ in a detail not shown here. Equal entries are not always repeated. “Also recorded” adds a separate entry of the source. Structures can show the parent of a compound that is named as a salt. Where two headings read alike, the source gives them in different places.
What was measured:
[1] = biological target: T1, equine serum butyrylcholinesterase (esBChE) (Equus caballus, UniProt P81908); experiment: BChE inhibition, Ellman's method; assay type: biochemical; details: read-out: BChE % inhibition at 10 µM
T1 construct: BChE from equine serum (13 U/mg; Sigma); purchased Sigma; host or cells: equine serum
Method: 2H-Chromen-2-ones 3a–m and 8 were evaluated as inhibitors of electric eel AChE (eeAChE), equine serum butyrylcholinesterase (esBChE) and rat MAOs (rMAO-A and rMAO-B). In vitro enzymatic assays on ChEs were accomplished through the well-known spectrophotometric Ellman’s method [20].

[2] = biological target: T2, electric eel AChE (eeAChE) (Electrophorus electricus, UniProt O42275); experiment: biochemical
T2 construct: purchased Sigma Aldrich, Milan, Italy

rMAO-B = biological target: T3, rMAO-B (Rattus norvegicus, UniProt P19643); experiment: rat MAO-B inhibition, kynuramine spectrophotometric assay; assay type: biochemical; details: for inhibition at 10 µM: read-out: MAO-B % inhibition at 10 µM
T3 construct: from tissue; host or cells: rat brain mitochondrial homogenate
T3 sequence (P19643 1-520): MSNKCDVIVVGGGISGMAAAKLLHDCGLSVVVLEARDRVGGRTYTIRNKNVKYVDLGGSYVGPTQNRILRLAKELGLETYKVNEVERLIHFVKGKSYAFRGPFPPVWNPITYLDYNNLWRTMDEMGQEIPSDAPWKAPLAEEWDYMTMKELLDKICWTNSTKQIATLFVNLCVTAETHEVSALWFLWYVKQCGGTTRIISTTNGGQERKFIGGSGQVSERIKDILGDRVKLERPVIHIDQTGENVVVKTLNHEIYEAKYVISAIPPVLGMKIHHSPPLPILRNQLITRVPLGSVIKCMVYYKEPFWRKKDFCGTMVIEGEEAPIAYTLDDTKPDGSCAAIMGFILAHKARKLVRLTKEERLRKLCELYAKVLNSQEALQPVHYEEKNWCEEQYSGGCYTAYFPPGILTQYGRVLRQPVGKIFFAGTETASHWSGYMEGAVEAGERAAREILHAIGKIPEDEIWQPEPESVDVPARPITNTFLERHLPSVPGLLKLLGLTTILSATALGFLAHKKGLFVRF
Method: (§1) MAO inhibitory activities were measured on rat brain mitochondrial homogenates [21].
(§2) The rMAO inhibitory activity of compounds in Table 1 was assessed using a continuous spectrophotometric assay [28], monitoring the rate of oxidation of the nonselective nonfluorescent MAO substrate kynuramine to 4-hydroxyquinoline, as previously reported [21]. […] Finally, IC50 values were determined by nonlinear regression of MAO inhibition vs. -log of the concentration plots, using the program Origin, Version 6.0 (Microcal Software Inc., Northampton, MA, USA).

rMAO-A = biological target: T4, rMAO-A (Rattus norvegicus, UniProt P21396); experiment: rat MAO-A inhibition, kynuramine spectrophotometric assay; assay type: biochemical; details: rat brain homogenates; for inhibition at 10 µM: read-out: MAO-A % inhibition at 10 µM
T4 construct: from tissue; host or cells: rat brain mitochondrial homogenate
T4 sequence (P21396 1-526): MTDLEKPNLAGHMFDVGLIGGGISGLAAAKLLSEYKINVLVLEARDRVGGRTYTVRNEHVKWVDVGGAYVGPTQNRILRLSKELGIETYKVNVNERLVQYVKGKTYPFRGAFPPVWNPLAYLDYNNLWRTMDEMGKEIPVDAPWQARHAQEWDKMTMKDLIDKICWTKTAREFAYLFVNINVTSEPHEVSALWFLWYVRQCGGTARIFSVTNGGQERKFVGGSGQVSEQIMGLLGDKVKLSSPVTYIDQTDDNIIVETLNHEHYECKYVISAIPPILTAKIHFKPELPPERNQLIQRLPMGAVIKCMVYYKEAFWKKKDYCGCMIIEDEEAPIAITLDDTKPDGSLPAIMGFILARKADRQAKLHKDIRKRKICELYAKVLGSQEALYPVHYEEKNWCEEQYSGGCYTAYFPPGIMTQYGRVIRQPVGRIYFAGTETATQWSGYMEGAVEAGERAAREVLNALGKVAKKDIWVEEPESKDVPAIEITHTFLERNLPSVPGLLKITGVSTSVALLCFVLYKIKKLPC
Method: as §1, §2

SH-SY5Y cells [3] = experiment: Neuroprotection against oxidative stress insults, MTT assay; assay type: cell-based, human
Method: Therefore, a preliminary evaluation of the cytotoxicity and neuroprotective efficacy of this hit compound was undertaken in the human SH-SY5Y neuroblastoma cell line by following the 3-(4,5-dimethylthiazol-2-yl)-2,5-diphenyl-tetrazolium bromide (MTT) assay [22].
Human neuroblastoma SH-SY5Y cells were dispensed into 96-well microtiter plates at a density of 10,000 cells/well. […] The cell viability was determined by the MTT assay and analyzed as above described. Each compound was tested in triplicate, and the experiments were repeated three times. Statistical significance was assigned to p < 0.01 and calculated using a one-way analysis of variance (ANOVA) followed by the Bonferroni post hoc tests (GraphPad Prism vers. 5).
Results are expressed as the percentage of viable cells, and data represent the means ± SD (n = 3).

SH-SY5Y cells [4] = experiment: Cytotoxicity, MTT assay; assay type: cell-based; details: 24 h incubation, 0.1–50 µM
Method: Human neuroblastoma cells SH-SY5Y were maintained at 37 °C in a humidified incubator containing 5% CO2 in DMEM nutrient (Lonza) supplemented with 10% heat inactivated FBS, 2 mM L-glutamine, 100 U/mL penicillin and 100 µg/mL streptomycin. Cells were dispensed into 96-well microtiter plates at a density of 10,000 cells/well. […] Then, the plates were incubated at 37 °C for 24 h. An amount of 10 µL of 0.5% w/v MTT was further added to each well, and the plates were incubated for an additional 3 h at 37 °C. Finally, the cells were lysed by the addition of 100 µL of DMSO/EtOH 1:1 (v/v) solution.
Untreated cells were used as the control.

P-gp (MDR1) = experiment: in vitro; details: dog, MDCK-MDR1, pH 7.4
[5] = determined after 30 min pre-incubation
[6] = from electric eel, read-out: AChE IC50

T1 sequence (P81908 whole entry): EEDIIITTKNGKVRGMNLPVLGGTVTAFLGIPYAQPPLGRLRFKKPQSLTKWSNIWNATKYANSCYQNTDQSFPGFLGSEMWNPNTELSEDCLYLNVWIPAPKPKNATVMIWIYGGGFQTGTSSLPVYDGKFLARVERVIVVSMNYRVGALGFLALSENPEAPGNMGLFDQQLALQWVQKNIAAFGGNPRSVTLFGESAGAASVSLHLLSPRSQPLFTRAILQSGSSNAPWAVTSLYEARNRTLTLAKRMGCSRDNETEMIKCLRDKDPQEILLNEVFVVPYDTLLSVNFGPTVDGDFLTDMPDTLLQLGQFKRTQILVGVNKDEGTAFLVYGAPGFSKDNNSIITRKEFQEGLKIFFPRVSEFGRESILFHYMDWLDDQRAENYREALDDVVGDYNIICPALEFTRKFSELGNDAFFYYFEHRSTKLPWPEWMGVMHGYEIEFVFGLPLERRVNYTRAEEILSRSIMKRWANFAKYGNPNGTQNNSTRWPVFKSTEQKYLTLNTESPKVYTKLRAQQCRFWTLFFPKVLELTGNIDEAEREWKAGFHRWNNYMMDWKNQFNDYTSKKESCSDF
T2 sequence (O42275 24-633): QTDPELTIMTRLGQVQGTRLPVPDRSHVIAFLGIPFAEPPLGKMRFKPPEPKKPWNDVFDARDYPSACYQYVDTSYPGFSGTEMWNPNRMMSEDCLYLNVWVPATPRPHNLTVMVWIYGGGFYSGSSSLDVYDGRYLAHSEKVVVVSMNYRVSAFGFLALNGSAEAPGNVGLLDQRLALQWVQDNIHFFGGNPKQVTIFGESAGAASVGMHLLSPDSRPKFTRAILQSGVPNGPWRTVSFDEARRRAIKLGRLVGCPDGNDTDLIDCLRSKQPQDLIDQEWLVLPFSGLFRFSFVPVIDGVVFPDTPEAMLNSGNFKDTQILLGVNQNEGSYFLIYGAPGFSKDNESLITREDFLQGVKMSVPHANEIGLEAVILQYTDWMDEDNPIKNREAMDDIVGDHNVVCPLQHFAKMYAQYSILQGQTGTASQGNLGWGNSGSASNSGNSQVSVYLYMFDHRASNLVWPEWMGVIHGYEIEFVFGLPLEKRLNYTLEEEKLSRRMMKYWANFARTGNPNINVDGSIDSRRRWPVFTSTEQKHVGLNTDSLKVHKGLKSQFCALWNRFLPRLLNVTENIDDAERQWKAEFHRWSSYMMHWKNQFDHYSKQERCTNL

| Compound | IC50 ([2]; AChE IC50, from electric eel) | inhibition at 10 µM ([1]; from equine serum, 10 µM) | IC50 [2, 6] | inhibition at 10 µM (rMAO-B; rat brain homogenates) | inhibition at 10 µM (rMAO-A) | further results |
| --- | --- | --- | --- | --- | --- | --- |
| C#CCN(C)Cc1cc2ccc(OC)cc2oc1=O [Compound 3f, 7-Methoxy-3-{[methyl(prop-2-yn-1-yl)amino]methyl}-2H-chromen-2-one hydrochloride] | 14 ± 1 µM | – | – | – | – | inhibition at 10 µM [1]: 13% |
| C#CCN(C)Cc1cc2ccccc2oc1=O [Compound 3c, 3-{[Methyl(prop-2-yn-1-yl)amino]methyl}-2H-chromen-2-one] | – | < 5% | 8.4 ± 0.5 µM | – | – | IC50 (rMAO-B; rat brain homogenates, determined after 30 min pre-incubation, read-out: MAO-B IC50): 377 ± 14 nM; IC50 (rMAO-A; [5]): 7 ± 1.4 µM |
| COc1cc2cc(CNCc3ccc(C#N)cc3)c(=O)oc2cc1OC [Compound 3k, 4-({[(6,7-Dimethoxy-2-oxo-2H-chromen-3-yl)methyl]amino}methyl)benzonitrile] | – | 13% | 8.4 ± 1.1 µM | < 5% | 20% | – |
| COc1cc2cc(CNCC(N)=O)c(=O)oc2cc1OC [Compound 3l, N^2-[(6,7-Dimethoxy-2-oxo-2H-chromen-3-yl)methyl]glycinamide] | – | 10% | 8 ± 1.2 µM | < 5% | < 5% | – |
| COc1ccc2cc(CN(C)Cc3cccc(F)c3)c(=O)oc2c1 [Compound 3d, 3-{[(3-Fluorobenzyl)(methyl)amino]methyl}-7-methoxy-2H-chromen-2-one] | – | 8.5% | 6.6 ± 0.1 µM | < 5% | 6% | – |
| C#CCN(C)Cc1cc2cc(OC)c(O)cc2oc1=O [Compound 8, 7-Hydroxy-6-methoxy-3-{[methyl(prop-2-yn-1-yl)amino]methyl}-2H-chromen-2-one] | – | < 5% | 9.3 ± 0.4 µM | – | – | inhibition at 10 µM (rMAO-B; rat brain homogenates, determined after 30 min pre-incubation): 11%; inhibition at 10 µM (rMAO-A; [5]): 35% |
| COc1cc2cc(CN(C)Cc3cccc(Cl)c3)c(=O)oc2cc1OC [Compound 3g, 3-{[(3-Chlorobenzyl)(methyl)amino]methyl}-6,7-dimethoxy-2H-chromen-2-one hydrochloride] | 4.4 ± 1.1 µM | 19% | – | < 5% | 7% | – |
| C#CCN(C)Cc1cc2cc(OC)c(OC)cc2oc1=O.Cl [Compound 3h, 6,7-Dimethoxy-3-{[methyl(prop-2-yn-1-yl)amino]methyl}-2H-chromen-2-one hydrochloride] | 8.99 µM and 9 µM | < 5% | – | – | – | Neuroprotection against oligomycin-A (SH-SY5Y cells [3]; 0.1 µM compound, oligomycin-A 30 µM, 24 h co-incubation): moderate neuroprotection; also recorded: promising neuroprotective effect; Neuroprotection against rotenone (SH-SY5Y cells [3]; 0.1 µM compound, rotenone 75 µM, 24 h co-incubation): moderate neuroprotection; also recorded: promising neuroprotective effect; Neuroprotection (cell survival) (SH-SY5Y cells [3]; 1 µM compound, 24 h co-incubation with H2O2 195 µM, oligomycin-A 30 µM or rotenone 75 µM): no increase of cell survival; IC50 (rMAO-B): 2.8 ± 0.4 nM; P-gp substrate (MDCKII-MDR1 cells): not likely to be a substrate for P-gp; also recorded: did not result in a glycoprotein-p (P-gp) substrate; Cytotoxicity (viability of SH-SY5Y cells) (SH-SY5Y cells [4]): negligible cytotoxicity; also recorded: low cytotoxicity; inhibition at 10 µM (rMAO-A; [5]): < 5%; Papp A→B at 120 min, 75 µM (P-gp (MDR1)): 22.7 ×10⁻⁶ cm/s; Papp B→A at 120 min, 75 µM (P-gp (MDR1)): 21.8 ×10⁻⁶ cm/s |
| CN(Cc1cccc(F)c1)Cc1cc2ccccc2oc1=O [Compound 3b, 3-{[(3-Fluorobenzyl)(methyl)amino]methyl}-2H-chromen-2-one hydrochloride] | 6.8 ± 0.1 µM | 15% | – | < 5% | < 5% | – |
| CNC(=O)CNCc1cc2cc(OC)c(OC)cc2oc1=O [Compound 3m, N^2-[(6,7-Dimethoxy-2-oxo-2H-chromen-3-yl)methyl]-N^1-methylglycinamide] | – | 11% | 7.7 ± 0.4 µM | < 5% | < 5% | – |
| COc1cc2cc(CNCc3ccccc3)c(=O)oc2cc1OC [Compound 3j, 3-[(Benzylamino)methyl]-6,7-dimethoxy-2H-chromen-2-one] | – | 27% | 2.78 µM and 2.8 µM | < 5% | < 5% | – |
| CNCc1cc2cc(OC)c(OC)cc2oc1=O [Compound 3i, 6,7-Dimethoxy-3-[(methylamino)methyl]-2H-chromen-2-one hydrochloride] | 13 ± 1 µM | 10% | – | < 5% | < 5% | – |
| NC(=O)CNCc1cc2ccccc2oc1=O [Compound 3a, N^2-[(2-oxo-2H-Chromen-3-yl)methyl]glycinamide] | – | 6.2% | 12 ± 1 µM | < 5% | < 5% | – |
| COc1ccc2cc(CN(C)Cc3cccc(C#N)c3)c(=O)oc2c1 [Compound 3e, 3-{[[(7-Methoxy-2-oxo-2H-chromen-3-yl)methyl](methyl)amino]methyl}benzonitrile] | – | < 5% | 8.4 ± 0.3 µM | < 5% | 9.2% | – |

— PMC6273473 (Molecules, 2016)
